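In this assay, cells in 96-well plates receive the compound at five concentrations for 48 hours. Endpoints are linearly interpolated between the surrounding concentrations. GI50 marks 50% less growth.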 The source made the active and inactive calls. Rule as the data show it: active = GI50 up to about 1.1 µM and inactive = higher.
Assays:
Experiment in all cases: growth of human tumour cells (NCI), 48 h
COLO 205 = test system: COLO 205
HCT-116 = test system: HCT-116
CAKI-1 = test system: CAKI-1
U-251 = test system: U-251
SR = test system: SR
SK-MEL-28 = test system: SK-MEL-28
A549 = test system: A549
CCRF-CEM = test system: CCRF-CEM
SNB-19 = test system: SNB-19
786-0 = test system: 786-0
SNB-75 = test system: SNB-75
SF-295 = test system: SF-295
EKVX = test system: EKVX
HOP-92 = test system: HOP-92
A498 = test system: A498
OVCAR-3 = test system: OVCAR-3

Measured: GI50

CC12OC3(O)C4C5CC(C6C5C3C61)C42 (centres undefined)
inactive: COLO 205 > 100 µM | HCT-116 > 100 µM | CAKI-1 > 100 µM | U-251 > 100 µM | SR > 100 µM | SK-MEL-28 > 100 µM | A549 > 100 µM | CCRF-CEM > 100 µM | SNB-19 > 100 µM | 786-0 38.3 µM | SNB-75 > 100 µM

C=CCNC(=S)N/C=C1\C(=O)Oc2ccccc2C1=O
inactive: COLO 205 > 100 µM | SF-295 > 100 µM | EKVX > 100 µM | HCT-116 49.5 µM | CAKI-1 22.2 µM | U-251 59.8 µM | SK-MEL-28 > 100 µM | A549 93.8 µM | CCRF-CEM > 100 µM | SNB-19 59.4 µM | HOP-92 30.5 µM | A498 56.8 µM | OVCAR-3 82 µM | 786-0 55 µM | SNB-75 18.7 µM

O=C(NCCO)c1ccc([N+](=O)[O-])cc1
inactive: COLO 205 > 100 µM | SF-295 > 100 µM | EKVX > 100 µM | CAKI-1 > 100 µM | U-251 > 100 µM | SK-MEL-28 > 100 µM | A549 > 100 µM | CCRF-CEM > 100 µM | SNB-19 > 100 µM | A498 > 100 µM | OVCAR-3 > 100 µM | 786-0 > 100 µM | SNB-75 > 100 µM

CCOC(=O)C(C(=O)OCC)=C1C=C(c2ccccc2)c2ccccc21
inactive: COLO 205 54.2 µM | SF-295 31.2 µM | EKVX > 100 µM | HCT-116 48.9 µM | U-251 86.7 µM | SK-MEL-28 > 100 µM | A549 79.3 µM | CCRF-CEM 27.5 µM | SNB-19 > 100 µM | HOP-92 8.09 µM | A498 13.4 µM | OVCAR-3 > 100 µM | 786-0 28.5 µM | SNB-75 45.7 µM

C/C(CC(=O)Nc1ccc([N+](=O)[O-])cc1)=N\Nc1ccc([N+](=O)[O-])cc1[N+](=O)[O-]
inactive: COLO 205 89.7 µM | SF-295 47.5 µM | EKVX > 100 µM | HCT-116 59.7 µM | U-251 > 100 µM | SK-MEL-28 > 100 µM | A549 44.7 µM | CCRF-CEM 45 µM | HOP-92 73.6 µM | A498 59.8 µM | OVCAR-3 98.2 µM | 786-0 > 100 µM | SNB-75 > 100 µM

C[C@@H](NC1CCC[C@H]1O)c1ccccc1 (some centres undefined)
inactive: COLO 205 > 100 µM | SF-295 > 100 µM | EKVX > 100 µM | HCT-116 > 100 µM | CAKI-1 > 100 µM | U-251 > 100 µM | SK-MEL-28 > 100 µM | A549 > 100 µM | CCRF-CEM > 100 µM | SNB-19 > 100 µM | HOP-92 > 100 µM | OVCAR-3 > 100 µM | 786-0 > 100 µM | SNB-75 > 100 µM

COc1ccc(O)cc1C(O)c1ccccc1 (centres undefined)
inactive: COLO 205 > 100 µM | SF-295 > 100 µM | EKVX > 100 µM | HCT-116 > 100 µM | CAKI-1 > 100 µM | U-251 > 100 µM | SK-MEL-28 > 100 µM | A549 > 100 µM | CCRF-CEM > 100 µM | SNB-19 > 100 µM | HOP-92 > 100 µM | A498 > 100 µM | OVCAR-3 > 100 µM | 786-0 > 100 µM | SNB-75 > 100 µM

c1ccc2c(c1)CCCc1cc3ccccc3nc1-2
inactive: COLO 205 29.9 µM | SF-295 > 100 µM | EKVX > 100 µM | HCT-116 > 100 µM | CAKI-1 > 100 µM | U-251 > 100 µM | SK-MEL-28 > 100 µM | A549 > 100 µM | CCRF-CEM 94.6 µM | SNB-19 > 100 µM | A498 79.4 µM | OVCAR-3 > 100 µM | 786-0 > 100 µM | SNB-75 75.3 µM

CCOP(=O)(OCC)C1CCCCOC1=O (centres undefined)
inactive: COLO 205 > 100 µM | SF-295 > 100 µM | EKVX > 100 µM | HCT-116 > 100 µM | CAKI-1 > 100 µM | U-251 > 100 µM | SK-MEL-28 > 100 µM | A549 > 100 µM | CCRF-CEM 76.7 µM | SNB-19 > 100 µM | A498 > 100 µM | OVCAR-3 > 100 µM | 786-0 > 100 µM | SNB-75 > 100 µM

NC(CCCNCc1ccccc1O)C(=O)O (centres undefined)
inactive: COLO 205 > 100 µM | SF-295 > 100 µM | EKVX > 100 µM | HCT-116 > 100 µM | CAKI-1 > 100 µM | SK-MEL-28 > 100 µM | A549 > 100 µM | CCRF-CEM > 100 µM | SNB-19 > 100 µM | HOP-92 > 100 µM | A498 > 100 µM | OVCAR-3 > 100 µM | 786-0 > 100 µM | SNB-75 > 100 µM

Brc1cccc(/C=N/C23CC4CC(CC(C4)C2)C3)c1
inactive: COLO 205 > 100 µM | SF-295 > 100 µM | EKVX > 100 µM | HCT-116 > 100 µM | CAKI-1 > 100 µM | U-251 > 100 µM | SK-MEL-28 > 100 µM | A549 > 100 µM | CCRF-CEM > 100 µM | SNB-19 > 100 µM | HOP-92 > 100 µM | A498 > 100 µM | OVCAR-3 > 100 µM | 786-0 > 100 µM | SNB-75 > 100 µM

CC(=O)C1C(c2ccccc2)C2(C)OC(=O)C(C#N)C12C (centres undefined)
inactive: COLO 205 > 100 µM | SF-295 > 100 µM | EKVX > 100 µM | HCT-116 > 100 µM | U-251 > 100 µM | SK-MEL-28 > 100 µM | A549 > 100 µM | CCRF-CEM > 100 µM | SNB-19 > 100 µM | OVCAR-3 > 100 µM | 786-0 > 100 µM | SNB-75 > 100 µM

C=CCC1=C(C)C[C@@H]2CCC(=O)C=C12
inactive: COLO 205 > 100 µM | SF-295 > 100 µM | EKVX > 100 µM | HCT-116 > 100 µM | CAKI-1 > 100 µM | U-251 > 100 µM | SK-MEL-28 > 100 µM | A549 > 100 µM | CCRF-CEM > 100 µM | SNB-19 > 100 µM | HOP-92 > 100 µM | A498 > 100 µM | OVCAR-3 > 100 µM | 786-0 > 100 µM | SNB-75 > 100 µM

O=CC1CCC=CC1NC(=O)OCc1ccccc1 (centres undefined)
inactive: COLO 205 > 100 µM | SF-295 30.5 µM | EKVX > 100 µM | HCT-116 19.1 µM | CAKI-1 34.4 µM | U-251 57.5 µM | SR 30.7 µM | SK-MEL-28 > 100 µM | A549 > 100 µM | CCRF-CEM 25.9 µM | HOP-92 99.5 µM | 786-0 33.8 µM | SNB-75 29.2 µM

C[C@]12CCC(=O)C(O)=C1CC[C@@H]1C2CC[C@]2(C)Nc3c(cnn3-c3ccccc3)CC12 (some centres undefined)
inactive: SF-295 52.7 µM | EKVX > 100 µM | HCT-116 28.2 µM | CAKI-1 56.9 µM | U-251 > 100 µM | SK-MEL-28 > 100 µM | A549 > 100 µM | CCRF-CEM 37.2 µM | A498 > 100 µM | OVCAR-3 54.8 µM | 786-0 > 100 µM | SNB-75 > 100 µM
